Laboratory results reported in paper PMC9916978, “Enantioselective Human Serum Albumin Binding of Apremilast: Liquid Chromatographic, Fluorescence and Molecular Docking Study” (International Journal of Molecular Sciences, 2023).

Assays:
[1] = target: T1, human serum albumin (HSA) (Homo sapiens, UniProt P02768); experiment: van 't Hoff thermodynamic analysis on the Chiral-HSA column; format: binding; conditions: 10 mM phosphate buffer/IPA 96/4 v/v%, 10–30 °C, transfer from mobile phase to HSA stationary phase
T1 construct: purchased Chiral Technologies Inc., a subsidiary of Daicel Chemical Industries Ltd
T1 sequence (P02768 25-609): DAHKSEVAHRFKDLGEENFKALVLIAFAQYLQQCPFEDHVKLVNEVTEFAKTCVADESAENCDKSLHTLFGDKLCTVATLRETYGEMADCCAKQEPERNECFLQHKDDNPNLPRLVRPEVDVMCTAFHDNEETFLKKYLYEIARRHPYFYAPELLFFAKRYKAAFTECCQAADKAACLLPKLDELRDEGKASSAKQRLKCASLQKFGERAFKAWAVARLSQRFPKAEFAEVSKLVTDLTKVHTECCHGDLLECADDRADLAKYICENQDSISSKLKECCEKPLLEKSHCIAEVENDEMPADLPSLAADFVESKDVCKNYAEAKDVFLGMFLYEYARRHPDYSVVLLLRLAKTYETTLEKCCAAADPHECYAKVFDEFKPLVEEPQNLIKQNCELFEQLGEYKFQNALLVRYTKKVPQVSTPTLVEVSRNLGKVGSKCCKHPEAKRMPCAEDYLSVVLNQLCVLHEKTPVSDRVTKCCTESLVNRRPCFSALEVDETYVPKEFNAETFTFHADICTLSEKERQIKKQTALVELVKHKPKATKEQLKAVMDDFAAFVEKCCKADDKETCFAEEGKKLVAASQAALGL
Method: The separation temperature is one of the main determinant factors that can affect selectivity, resolution, retention factor and even the elution order of enantiomers during HPLC enantioseparations. To investigate the effects of temperature and to gain a better understanding of the mechanistic aspects of the enantiodiscrimination process on the Chiral-HSA column, thermodynamic analysis was performed in a 10 mM phosphate buffer/IPA 96/4 v/v% mixture.
To understand the energetic interactions between the analytes and the stationary phase, the classical van ’t Hoff approach was applied assuming only enantioselective interaction sites on the stationary phase. However, it should be noted that it is more realistic if both enantioselective and non-enantioselective interactions are considered.
Van ’t Hoff plots were constructed according to Equation (1) by plotting the natural logarithm of the retention factor as a function of the inverse of the absolute temperature in the temperature range of 10–30 °C, with 5 °C increments (a higher temperature was not applied due to possible column damage) (1) lnk=[…]+ΔS^°/R+lnΦ where R stands for the universal gas constant, T is the temperature in Kelvin, and k is the retention factor of the individual enantiomers. ΔH° denotes the standard enthalpy, while ΔS° is the standard entropy change of transfer of the solute from the mobile phase to the stationary phase, and Φ is the phase ratio of the HSA column. If ΔH° is constant in the selected temperature range, a linear relationship is obtained between lnk and 1/T, with a slope of −ΔH°/R and an intercept of ΔS°/R + lnΦ. Since the value of the phase ratio is seldom known, ΔS°* values (ΔS°* = ΔS° + RlnΦ) are often used to compensate for the uncertainty in Φ [38, 39].
Similarly, the differences in the change of standard enthalpy Δ(ΔH°) and standard entropy Δ(ΔS°) for the two enantiomers moving from the mobile phase to the stationary phase were also calculated according to the modified van ’t Hoff equation:(2) lnα=−∆(∆H^°)/RT+∆(∆S^°)/R
The isoenantioselective temperatures (Tiso) were also calculated as the ratio between Δ(ΔH°) and Δ(ΔS°), according to Equation (3). Tiso represents the temperature at which the enthalpy contribution is compensated by the entropic term, which means that […] (Δ(ΔG°)) equals zero. The thermodynamic parameter Δ(ΔG°) provides information on the strength of binding between selector and selectant, with more negative values indicating a more efficient binding. Consequently, a value of Δ(ΔG°) = 0 means that there is no difference between the binding strength of the enantiomers; therefore, at Tiso, the two enantiomers co-elute, and no separation is achieved. (3) Tiso=∆(∆H^°)/∆(∆S^°) (4) ∆(∆G^°)=∆(∆H^°)−T∗∆(∆S^°)

[2] = target: T1, human serum albumin (HSA); experiment: Albumin-bound percentage by zonal elution chromatography on Chiral-HSA column, extrapolated to zero organic modifier; format: binding; conditions: for Bound percentage (b%), Average + SD%: average over five organic modifiers
Excerpt: As it was observed, the decrease of the organic modifier percentage in the mobile phase caused an exponential increase in the retention times of both enantiomers. Therefore, for the calculations, the logarithm of the retention factors was plotted against the organic modifier proportion. With this conversion, a linear relationship was obtained, which could be easily extrapolated to zero for supposedly the best imitation of in vivo conditions. As the intercept of these linear equations, a k value is expressed that can be used to calculate the bound% according to Equation (7).
The separation factor (α) was calculated as follows:(6) α=k2/k1 where k1 and k2 are the retention factors of the first- and second-eluting enantiomer, respectively. The k values were used to calculate the albumin-bound percentage (b%) using Equation (7) by zonal elution chromatography:(7) b%=k/1+k·100

[3] = extrapolation to zero percentage of 1-propanol
[4] = extrapolation to zero percentage of ACN
[5] = extrapolation to zero percentage of EtOH
[6] = extrapolation to zero percentage of IPA
[7] = extrapolation to zero percentage of MeOH

## CCOc1cc([C@H](CS(C)(=O)=O)N2C(=O)c3cccc(NC(C)=O)c3C2=O)ccc1OC [R-APR]
[1]
  Δ(Δ)G°: -0.906 kcal/mol
  Δ(Δ)H°: -6.338 kcal/mol
  Δ(Δ)S°: −76.29 J/molK
[2]
  Bound percentage (b%), Average + SD%: 92.7 ± 1.5%
[2]; [3]
  Bound percentage (b%): 94.0%
[2]; [4]
  Bound percentage (b%): 91.3%
[2]; [5]
  Bound percentage (b%): 91.4%
[2]; [6]
  Bound percentage (b%): 92.1%
[2]; [7]
  Bound percentage (b%): 94.5%

## CCOc1cc([C@@H](CS(C)(=O)=O)N2C(=O)c3cccc(NC(C)=O)c3C2=O)ccc1OC [S-APR, apremilast]
[1]
  Δ(Δ)G°: -1.06 kcal/mol
  Δ(Δ)H°: -7.237 kcal/mol
  Δ(Δ)S°: −86.78 J/molK
[2]
  Bound percentage (b%), Average + SD%: 95.5 ± 1.3%
[2]; [3]
  Bound percentage (b%): 96.4%
[2]; [4]
  Bound percentage (b%): 93.7%
[2]; [5]
  Bound percentage (b%): 94.8%
[2]; [6]
  Bound percentage (b%): 95.7%
[2]; [7]
  Bound percentage (b%): 96.8%
